In article PMC6268609, “Synthesis and Evaluation of New β-Carboline-3-(4-benzylidene)-4H-oxazol-5-one Derivatives as Antitumor Agents” (Molecules, 2012):
Where two headings read alike, the source gives them in different places.

Legend:
prostate (PC-3) [1] = conditions: previous work; cited from earlier work
ovarian (OVCAR-03) [2] = conditions: previous work; cited from earlier work
glioma (U251) = assay: Cytotoxic assay (sulforhodamine B), glioma; assay type: cell-based, human; conditions: for IC50: Homo sapiens, U-251, 48 h, sulforhodamine B assay
Description: (§1) The synthesized compounds were evaluated in vitro against six human cancer cell lines consisting of glioma (U251), melanoma (UACC-62), breast (MCF-7), prostate (PC-3), ovarian (OVCAR-03) and colon (HT-29). Cell lines were obtained from National Cancer Institute (Frederick, MD, USA). Normal cell line (VERO, renal, green monkey), from the Rio de Janeiro Cell Bank, was also used. Stock cultures were grown in medium containing 5 mL RPMI 1640 (GIBCO BRL) supplemented with 5% fetal bovine serum (FBS, GIBCO), at 37 °C with 5% CO2. Penicillin:streptomycin (1000 μg/L:1000 U/L, 1 mL/L) was added to the experimental cultures. Cells in 96-well plates (100 μL cells well^−1) were exposed to compounds 8–11 in DMSO (concentrations of 0.25, 2.5, 25, and 250 μg·mL^−1) at 37 °C, 5% of CO2 in air for 48 h. […] Afterwards cells were fixed with 50% trichloroacetic acid and cell proliferation determined by spectrophotometric quantification (540 nm) of cellular protein content by using sulforhodamine B assay and doxorubicin as the positive control. Three measurements were obtained: at time zero (To, at the beginning of incubation) and 48 h post-incubation for compound-free (C) and tested (T) cells. Cell proliferation was determined according to the equation 100 × [(T − T0)/C − T0], for T0 < T ≤ C, and 100 × [(T − T0)/T0], for T ≤ T0 and a concentration-response curve for each cell line was plotted using software ORIGIN 8.0® (OriginLab Corporation). Using the concentration–response curve for each cell line, the IC50 values (concentration that produces a 50% reduction in cellular growth when compared to untreated control cells) and IC100 values (concentration that promotes total growth inhibition) were determined through non-linear regression analysis using software ORIGIN 8.0® (OriginLab Corporation). Compounds with IC50 values < 100 μM were considered actives.

melanoma (UACC-62) = assay: Cytotoxic assay (sulforhodamine B), melanoma; assay type: cell-based, human; conditions: for IC50: Homo sapiens, UACC-62, 48 h, sulforhodamine B assay
Description: as §1

breast (MCF-7) = assay: Cytotoxic assay (sulforhodamine B), breast; assay type: cell-based; conditions: Homo sapiens, MCF7, 48 h
Description: as §1

prostate (PC-3) [3] = assay: Cytotoxic assay (sulforhodamine B), prostate; assay type: cell-based, human; conditions: for IC50: Homo sapiens, 48 h, sulforhodamine B assay
Description: as §1

ovarian (OVCAR-03) [4] = assay: Cytotoxic assay (sulforhodamine B), ovarian; assay type: cell-based, human; conditions: for IC50: Homo sapiens, 48 h, sulforhodamine B assay
Description: as §1

colon (HT-29) = assay: Cytotoxic assay (sulforhodamine B), colon; assay type: cell-based; conditions: Homo sapiens, 48 h
Description: as §1

[5] = tested on: Normal cell line (VERO, renal, green monkey); assay: Cytotoxic assay (sulforhodamine B), normal cell line; assay type: cell-based; conditions: Chlorocebus sabaeus, 48 h
Description: as §1

SMILES | IC50 (prostate (PC-3) [1]) [µM] | IC50 (ovarian (OVCAR-03) [2]) [µM] | IC50 (glioma (U251)) [µM] | IC50 (melanoma (UACC-62)) [µM] | IC50 (breast (MCF-7)) [µM] | IC50 (prostate (PC-3) [3]) [µM] | IC50 (ovarian (OVCAR-03) [4]) [µM] | IC50 (colon (HT-29)) [µM] | IC50 [5] [µM] | IC100 (concentration that promotes total growth inhibition) (glioma (U251); glioma (U251), cytostatic activity) [µM] | IC100 (concentration that promotes total growth inhibition) (melanoma (UACC-62); melanoma (UACC-62), cytostatic activity) [µM] | IC100 (concentration that promotes total growth inhibition) (prostate (PC-3) [3]; prostate (PC-3), cytostatic activity) [µM] | IC100 (concentration that promotes total growth inhibition) (ovarian (OVCAR-03) [4]; ovarian (OVCAR-03), cytostatic activity) [µM]
CN(C)c1ccc(-c2nc(-c3n[nH]c(=S)[nH]3)cc3c2[nH]c2ccccc23)cc1 [1-(4-N,N-dimethylaminophenyl)-3-(5-thioxo-1,2,4-triazol-3-yl)-β-carboline] | 1.37 | 1.09 |  |  |  |  |  |  |  |  |  |  | 
COc1ccc(-c2nc(-c3nnc(SC)o3)cc3c2[nH]c2ccccc23)cc1 [1-(4-methoxyphenyl)-3-(2-methylthio-1,3,4-oxadiazol-5-yl) β-carboline] |  | 2.13 |  |  |  |  |  |  |  |  |  |  | 
O=C1OC(c2cc3c([nH]c4ccccc43)c(-c3ccccc3)n2)=NC1=Cc1cccc([N+](=O)[O-])c1 [Compound 8, 2-(1-Phenyl-9H-β-carbolin-3-yl)-4-(3-nitrobenzylidene)-4H-oxazol-5-one] |  |  | 62.4 | 7.52 | > 100 | > 100 | 63.2 | > 100 | > 100 |  |  |  | 
CC(=O)Oc1ccc(-c2nc(C3=NC(=Cc4cccc([N+](=O)[O-])c4)C(=O)O3)cc3c2[nH]c2ccccc23)cc1 [Compound 9, 2-[1-(4-Acetoxyphenyl)-9H-β-carbolin-3-yl]-4-(3-nitrobenzylidene)-4H-oxazol-5-one] |  |  | 80.2 | 8.76 | > 100 | > 100 | > 100 | > 100 | > 100 |  |  |  | 
COc1ccc(-c2nc(C3=NC(=Cc4cccc([N+](=O)[O-])c4)C(=O)O3)cc3c2[nH]c2ccccc23)cc1 [Compound 10, 2-[1-(4-Methoxyphenyl)-9H-β-carbolin-3-yl]-4-(3-nitrobenzylidene)-4H-oxazol-5-one] |  |  | 0.35 | 15.9 | 47.6 | 5.28 | 2.18 | > 100 | > 100 |  |  |  | 
COc1ccc(-c2nc(C3=NC(=Cc4ccccc4)C(=O)O3)cc3c2[nH]c2ccccc23)cc1 [Compound 11, 2-[1-(4-Methoxyphenyl)-9H-β-carbolin-3-yl]-4-benzylidene-4H-oxazol-5-one] |  |  | 0.48 | 10 | 23.4 | 1.5 | 1.07 | 67.9 | 63.2 | 15.50 | 112.42 | 64.17 | 56.83
COc1cccc2c1C(=O)c1c(O)c3c(c(O)c1C2=O)C[C@@](O)(C(=O)CO)C[C@@H]3O[C@H]1C[C@H](N)[C@H](O)[C@H](C)O1 [Doxorubicin, reference compound] |  |  | 0.03 | 0.04 | 0.06 | 0.05 | 0.42 | 0.18 | 0.5 |  |  |  | 
O=C(NN=Cc1ccccc1Cl)c1cc2c([nH]c3ccccc32)c(-c2ccc(O)cc2)n1 [N'-(2-chlorobenzylidene)-1-(4-hydroxyphenyl)-β-carboline-3-carbohydrazide] | 1.83 | 1.65 |  |  |  |  |  |  |  |  |  |  | 
